Columns and labels:
ERAlpha receptor = molecular target: T1, ERAlpha receptor (Homo sapiens, UniProt P03372); experiment: Competition binding assay with 3H-Estradiol, ERAlpha receptor; details: IC50 converted to Ki using Cheng-Prusoff equation; 3H-Estradiol competition; read-out: ER binding Ki (ERα)
T1 construct: purchased PanVera
T1 sequence (P03372 1-595): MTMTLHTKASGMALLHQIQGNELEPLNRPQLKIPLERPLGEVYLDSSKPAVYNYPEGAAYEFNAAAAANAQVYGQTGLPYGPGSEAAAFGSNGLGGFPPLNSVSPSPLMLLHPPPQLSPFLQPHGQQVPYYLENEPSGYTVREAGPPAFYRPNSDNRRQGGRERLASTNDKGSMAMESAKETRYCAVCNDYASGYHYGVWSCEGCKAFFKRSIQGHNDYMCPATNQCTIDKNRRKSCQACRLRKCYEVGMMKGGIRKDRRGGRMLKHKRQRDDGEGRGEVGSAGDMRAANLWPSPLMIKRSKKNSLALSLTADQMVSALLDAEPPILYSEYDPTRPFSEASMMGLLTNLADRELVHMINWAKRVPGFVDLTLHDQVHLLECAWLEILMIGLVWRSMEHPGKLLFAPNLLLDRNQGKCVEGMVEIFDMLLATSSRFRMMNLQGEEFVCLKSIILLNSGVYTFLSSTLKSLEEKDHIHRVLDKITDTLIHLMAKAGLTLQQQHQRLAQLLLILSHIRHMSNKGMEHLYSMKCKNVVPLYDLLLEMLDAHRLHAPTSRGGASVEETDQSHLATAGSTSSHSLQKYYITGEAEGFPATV
Procedure: (§1) Competition binding assay is run in a buffer containing 50 mM Hepes, pH 7.5, 1.5 mM EDTA, 150 mM NaCl, 10% glycerol, 1 mg/ml ovalbumin and 5 mM DTT, using 0.025 μCi per well ^3H-Estradiol (NEN #NET517 at 118 Ci/mmol, 1 mCi/ml), 10 ng/well ERAlpha or ERbeta receptor (PanVera). Competing compounds are added at 10 different concentrations. Non-specific binding is determined in the presence of 1 μM of 17-B Estradiol. The binding reaction (140 μl) is incubated for 4 hours at room temperature, then 70 μl of cold DCC buffer is added to each reaction (DCC buffer contains per 50 ml of assay buffer, 0.75 g of charcoal (Sigma) and 0.25 g of dextran (Pharmacia)). Plates are mixed 8 minutes on an orbital shaker at 4° C. Plates are then centrifuged at 3,000 rpm at 4° C. for 10 minutes. An aliquot of 120 μl of the mix is transferred to another 96-well, white flat bottom plate (Costar) and […] of Wallac Optiphase “Hisafe 3” scintillation fluid is added to each well. Plates are sealed and shaken vigorously on an orbital shaker. After an incubation of 2.5 hrs, read plates in a Wallac Microbeta counter. The data is used to calculate an IC50 and % Inhibition at 10 μM. The Kd for ^3H-Estradiol is determined by saturation binding to ER alpha and ER beta receptors. The IC50 values for compounds are converted to Ki using Cheng-Prusoff equation and the Kd determined by saturation binding assay.

ERbeta receptor = molecular target: T2, ERbeta receptor (Homo sapiens, UniProt Q92731); experiment: Competition binding assay with 3H-Estradiol, ERbeta receptor; details: IC50 converted to Ki using Cheng-Prusoff equation; 3H-Estradiol competition; read-out: ER binding Ki (ERβ)
T2 construct: purchased PanVera
T2 sequence (Q92731 whole entry): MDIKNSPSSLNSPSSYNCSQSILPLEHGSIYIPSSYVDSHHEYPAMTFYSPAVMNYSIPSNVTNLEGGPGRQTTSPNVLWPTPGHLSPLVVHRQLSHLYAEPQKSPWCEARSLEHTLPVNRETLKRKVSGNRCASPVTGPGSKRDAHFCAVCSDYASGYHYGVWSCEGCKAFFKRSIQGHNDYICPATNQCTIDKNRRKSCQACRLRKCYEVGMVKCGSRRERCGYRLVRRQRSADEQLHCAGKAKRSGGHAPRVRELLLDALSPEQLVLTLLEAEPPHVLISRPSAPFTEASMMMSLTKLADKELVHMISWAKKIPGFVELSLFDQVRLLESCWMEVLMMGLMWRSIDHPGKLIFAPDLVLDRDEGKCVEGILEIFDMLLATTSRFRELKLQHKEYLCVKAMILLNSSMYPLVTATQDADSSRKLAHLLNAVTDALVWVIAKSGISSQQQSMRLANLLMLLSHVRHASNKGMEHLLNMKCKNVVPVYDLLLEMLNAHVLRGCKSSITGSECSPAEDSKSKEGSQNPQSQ
Procedure: as §1

[1] = tested on: MCF-7 breast adenocarcinoma cells; experiment: MCF-7 proliferation assay (14C-thymidine), antagonist mode; type: cell-based; details: Homo sapiens, MCF7, with 10 pM E2
Procedure: MCF-7 breast adenocarcinoma cells (ATCC HTB 22) are maintained in MEM (minimal essential medium, phenol red-free, Gibco BRL) supplemented with 10% fetal bovine serum (FBS) (V/V), L-glutamine (2 mM), sodium pyruvate (1 mM), HEPES ((N-[2-hydroxyethyl]piperazine-N′-[2-ethanesulfonic acid] 10 mM}, non-essential amino acids (0.1 mM) and Penicillin Streptomycin (1×). Seven days prior to assay, MCF-7 cells are switched to assay media which is the same as maintenance medium except supplemented with 10% dextran-coated charcoal-stripped fetal bovine serum (DCC-FBS) assay medium in place of 10% FBS. MCF-7 cells are removed from flasks using 10× Trypsin EDTA (phenol red free, Gibco BRL) and diluted to 1× in (Ca++/Mg++ free HBSS (phenol red-free). Cells are adjusted to 80,000 cells/ml in assay medium. […] For each of the agonist plates, a basal level (media) and a maximum stimulated level (with 1 μM E2) is determined. For each of the antagonist plates, a basal level (media) and a E2 (10 pM) alone control is determined. […] The plates are incubated overnight in the same incubator and then counted on the Wallac Microbeta counter. […] For the agonist mode, an EC50 and percent of maximum E2 stimulation and concentration of maximum stimulation is calculated.

[2] = tested on: Ishikawa human endometrial tumor cells; experiment: Ishikawa cell assay (PNPP readout), agonist and antagonist modes; type: cell-based; details: for IC50: Homo sapiens, Ishikawa, antagonist mode, with 1 nM E2; for Ishikawa Agonist % Eff: agonist mode, % efficacy versus the response to Tamoxifen
Source text: Ishikawa human endometrial tumor cells are maintained in MEM (minimum essential medium, with Earle's salts and L-Glutamine, Gibco BRL, Gaithersburg, Md.), supplemented with 10% fetal bovine serum (FBS) (V/V), (Gibco BRL). One day prior to assay, growth media is changed to assay medium, DMEM/F-12 (3:1) (Dulbecco's Modified Eagle Medium: Nutrient Mixture F-12, 3:1 Mixture, phenol red-free, Gibco BRL) supplemented with 5% dextran coated charcoal stripped fetal bovine serum (DCC-FBS) (Hyclone, Logen, Utah), L-Glutamine (2 mM), MEM sodium pyruvate (1 mM), HEPES (N-[2-hydroxyethyl]piperazine-N′-[2-ethanesulfonic acid] 2 mM) all from Gibco BRL). After an overnight incubation, ishikawa cells are rinsed with Dulbecco's Phosphate Buffered Saline (1×) (D-PBS) without Ca^+2 and Mg^+2 (Gibco BRL), and trypsinized by a 3 minute incubation with 0.25% Trypsin/EDTA, phenol red-free (Gibco BRL). Cells are resuspended in assay medium and adjusted to 250,000 cells/ml. Approximately 25,000 cells in a 100 ul media are added to flat-bottom 96 wells microculture plates (Costar 3596) and incubated at 37° C. in a 5% CO2 humidified incubator for 24 hours. The next day, serial dilutions of compounds are prepared in assay medium (at 6 times the finial concentration in the assay). The assay is run in dual mode, agonist and antagonist modes. For the agonist mode, plates receive 25 μl/well of assay medium followed by 25 μl/well of diluted compounds (at 6× the final concentrations). For the antagonist mode, plates receive 25 µl/well of 6 nM E2 (β-Estradiol, Sigma, St. Louis, Mo.) followed by 25 μl/well of diluted compounds (at 6× the final concentrations). After an additional 48-hour incubation at 37° C. in a 5% CO2 humidified incubator, media is aspirated from wells and 100 μl fresh assay medium is added to each microculture. Serial dilutions of compounds are prepared and added to the cells as described above. After an additional 72 hour incubation at 37° C. in a 5% CO2 humidified incubator, the assay is quenched by removing media and rinsing plates twice in Dulbecco's Phosphate Buffered Saline (1×) (D-PBS) (Gibco BRL). The plates are dried for 5 min and frozen at −70° C. for at least 1 hour. The plates are then removed from the freezer and allowed to thaw at room temperature. To each well, 100 μl of 1-Step™ PNPP (Pierce Chemical Company, Rockford, Ill.) is added. After a 20-minute incubation, plates are read on a spectophotometer at 405 nm. The data is fitted to a linear interpolation to derive EC50 (for agonist mode) or IC50 (for antagonist mode) values. For the agonist mode, a % efficacy for each compound is calculated versus the response to Tamoxifen. For the antagonist mode, a % efficacy for each compound is calculated versus E2 (1 nM) alone.

| Ki (ERAlpha receptor) [nM] | Ki (ERbeta receptor) [nM] | IC50 [1] [nM] | IC50 [2] [nM] | Compound | Ishikawa Agonist % Eff [2] [%] |
| --- | --- | --- | --- | --- | --- |
| 1 | 1 | 8 | 19 | Oc1ccc2c3c(sc2c1)Cc1ccccc1OC3c1ccc(OCCN2CCCCC2)cc1 (stereo not shown) [Example 1, 5-[4-(2-Piperidin-1-yl-ethoxy)-phenyl]-5,11-dihydro-6-oxa-12-thia-dibenzo[a,f]azulen-2-ol] | 4 |
| 2 | 3 | 10 | 454 | Oc1ccc2c3c(ccc2c1)Cc1ccccc1OC3c1ccc(OCCN2CCCCC2)cc1 (stereo not shown) [Example 2, 13-[4-(2-Piperidin-1-yl-ethoxy)-phenyl]-7,13-dihydro-12-oxa-benzo[4,5]cyclohepta[1,2-a]naphthalen-3-ol] | 24 |
